Experimental data published in US11591330B2, “HIF-2a small-molecule inhibitor and use thereof” (China Medical University, priority 2018, dated 2023).

Experiments:
[1] = system: human ovarian cancer OVCAR-3 cells; test: MTT/CCK8 cell proliferation analysis; type: cell-based; conditions: MTT/cck8, FIG. 5
Procedure: (§1) MCF-7 and OVCAR-3 cells were taken out from liquid nitrogen, thawed in a water bath at 37° C., and centrifuged at 1000 rpm for 5 min, the supernatant was removed, 1 ml of DMEM medium with 10% fetal bovine serum was added to MCF-7 cells, the cell suspension was transferred into a 25 cm2 cells culture flask, and a medium with 10% fetal bovine serum was added for culture.
(§2) Well-growing human breast cancer MCF-7 cells, human breast cancer stem cell-like cell MCF-7 MS cells, human ovarian cancer OVCAR-3 cells, human ovarian cancer stem cell-like cell OVCAR-3 cells were taken, digested, resuspended, and inoculated in a 96-well plate with the number of cells per well being 5×10^3; after 24 hours of culture, different concentrations of ComA, ComA combined with PTX, or ComA combined with DDP were administrated for treating the cells for 48 hours, with 3 replicate wells for each concentration; 5 mg/ml of MTT/cck8 was added for treatment for 2 h, followed by shaking for 10 min in a shaker; the absorbance at 570 nm (for measuring MTT)/450 nm (for measuring CCK8) was measured with a microplate reader, the inhibition rate was calculated according to the formula: inhibition rate %=[1−(dosing well-zero adjustment well)/(control well-zero adjustment well)]*100%; IC50 was calculated with SPSS16.0 software, and the experiment was repeated three times.

[2] = system: human breast cancer MCF-7 cells; test: MTT/CCK8 cell proliferation analysis; type: cell-based
Procedure: as §1, §2

[3] = system: human breast cancer stem cell-like MCF-7 MS cells; test: MTT/CCK8 cell proliferation analysis; type: cell-based
Procedure: (§3) When MCF-7 or OVCAR-3 cells grew to 70%-80%, the medium was discarded, PBS was added for washing 3 times, and trypsin was added for digestion for 1 min; the DMEM medium containing 10% fetal calf serum was added to stop the digestion, centrifuged at 1000 rpm for 5 min, the supernatant was discarded, PBS was added to resuspend cells, centrifuged at 1000 rpm for 5 min, the supernatant was discarded, 2 ml DMEM-F12 conditioned medium was added to resuspend cells, and the cells were cultured in suspension at 37° C., 5% CO2 in a constant-humidity environment.
as §2

[4] = system: human ovarian cancer stem cell-like OVCAR-3 MS cells; test: MTT/CCK8 cell proliferation analysis; type: cell-based
Procedure: as §3, §2

[5] = system: HIF-1α; test: Western blot analysis of HIF-1α expression in MCF-7 MS cells; type: cell-based, human; conditions: 48 h, FIG. 8
Procedure: (§4) The human breast cancer stem cell-like MCF7 MS cells were divided into control (Ctrl) group, PTX alone treatment group, ComA alone treatment group, and ComA combined with PTX treatment group, treated for 48 h, and then collected; the cells were washed twice with pre-cooled 1×PBS, and PBS was discarded; 100-200 μl RIPA cell lysis solution (RIPA cell lysis solution:Protease inhibitor cocktail=250:1) was added according to the amount of cells; the mixture was transferred to an EP tube for lysis on ice for 40-60 min, and centrifuged at 4° C. at 12000 rpm/min for 15 minutes; and the supernatant was taken and stored at −80° C. for later use.
(§5) Protein standard curve was prepared (in a 96-well plate), with the configuration system and absorbance shown in the table below, wherein the protein solution was placed at 37° C. and shaken for 30 min, the OD value was measured at 570 nm wavelength, and the protein standard curve was drawn: the abscissa being the standard protein content, and the ordinate being the absorbance value (OD value) under the 570 nm wavelength, thereby drawing a standard curve.
(§6) The samples were treated with 6× protein loading buffer. According to the quantified protein concentration, 30 μl:50 μg protein sample per well was loaded, the well was filled with PBS up to 30 μl when the sample was insufficient, and the samples were denatured in a metal bath at 100° C. for 10 min. […]

[6] = target: T1, HIF-2α (Homo sapiens, UniProt Q99814); test: Western blot analysis of HIF-2α expression in MCF-7 MS cells; type: cell-based; conditions: 48 h, FIG. 8
T1 construct: endogenous in cells; host or cells: MCF-7 MS (mammosphere / stem cell-like cells induced from human breast cancer MCF-7)
T1 sequence (Q99814 whole entry): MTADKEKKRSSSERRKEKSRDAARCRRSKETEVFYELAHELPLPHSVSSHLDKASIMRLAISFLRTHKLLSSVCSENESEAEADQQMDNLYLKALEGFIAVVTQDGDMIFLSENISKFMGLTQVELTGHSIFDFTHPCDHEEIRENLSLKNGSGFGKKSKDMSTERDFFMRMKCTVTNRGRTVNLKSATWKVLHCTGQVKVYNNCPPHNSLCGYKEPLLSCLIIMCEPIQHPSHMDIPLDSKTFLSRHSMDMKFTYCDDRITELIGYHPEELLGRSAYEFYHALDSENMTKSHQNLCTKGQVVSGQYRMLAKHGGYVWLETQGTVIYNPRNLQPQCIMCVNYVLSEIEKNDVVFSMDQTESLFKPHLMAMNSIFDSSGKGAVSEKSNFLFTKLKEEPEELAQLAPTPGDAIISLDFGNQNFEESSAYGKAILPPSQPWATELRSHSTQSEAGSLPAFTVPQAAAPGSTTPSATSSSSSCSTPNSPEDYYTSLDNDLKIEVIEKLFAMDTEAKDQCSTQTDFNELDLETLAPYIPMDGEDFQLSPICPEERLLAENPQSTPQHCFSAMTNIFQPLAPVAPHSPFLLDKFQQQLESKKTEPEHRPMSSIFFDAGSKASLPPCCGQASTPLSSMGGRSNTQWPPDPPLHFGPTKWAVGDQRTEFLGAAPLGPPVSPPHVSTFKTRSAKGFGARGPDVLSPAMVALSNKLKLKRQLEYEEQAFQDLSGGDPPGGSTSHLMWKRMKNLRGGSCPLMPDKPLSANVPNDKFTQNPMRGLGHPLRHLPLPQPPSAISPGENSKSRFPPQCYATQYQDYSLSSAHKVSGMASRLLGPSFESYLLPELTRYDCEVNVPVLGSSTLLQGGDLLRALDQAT
Procedure: as §4, §5, §6

Question: `Cc1ccn2c(=O)cc(CN(Cc3ccccc3)Cc3ccco3)nc2c1` [ComA] was tested. Which “inhibitory activity on proliferation” value [1] did it give?
Answer: obvious inhibitory activity

Question: And the “inhibitory activity on proliferation” value ([2]; MCF-7 cells, MTT/cck8, FIG. 4)?
Answer: obvious inhibitory activity

Question: What about the “time dependence of anti-tumor cell and anti-tumor stem cell activity” value ([2]; stated for tumor cells and tumor stem cells together) of the same molecule?
Answer: obviously time-dependent

Question: And the “enhancement of the inhibitory effect of paclitaxel (PTX)” value ([3]; ComA combined with PTX, 48 hours, FIG. 6)?
Answer: can enhance the inhibitory effect

Question: And the “inhibitory activity on proliferation” value ([3]; MTT/cck8, FIG. 4)?
Answer: obvious inhibitory activity

Question: And the “enhancement of the inhibitory effect of cisplatin (DDP)” value ([4]; ComA combined with DDP, 48 hours, FIG. 7)?
Answer: can enhance the inhibitory effect

Question: And the “inhibitory activity on proliferation” value ([4]; MTT/cck8, FIG. 5)?
Answer: obvious inhibitory activity

Question: And the “expression of HIF-1α” value [5]?
Answer: no obvious inhibitory effect

Question: And the “expression of HIF-2α” value ([6]; ComA alone)?
Answer: obviously inhibited the expression of HIF-2α

Question: And the “expression of HIF-2α” value ([6]; ComA combined with PTX)?
Answer: obviously inhibited the expression of HIF-2α
